Tests used:
Assay type in all cases: in vivo
[1] = test system: sicklepod (Cassia obtusifolia, CASOB); test: Post-emerge test, greenhouse herbicide activity screening; details: post-emerge, 14 days after application, rating scale 0-100
Outline: (§1)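 Compounds in acetone were track-sprayed at 15–1000 g ai/ha: pre-emergence onto soil sown the previous day, then top-watered to incorporate and later bottom-watered; post-emergence onto 2–3 leaf plants with 0.25% v/v surfactant, bottom-watered only. Ratings on a 0–100 phytotoxicity scale were taken at day 14.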

[2] = test system: lambsquarters (Chenopodium album, CHEAL); test: as above; details: post-emerge, 14 days after application, rating scale 0-100
Outline: as §1

[3] = test system: redroot pigweed (Amaranthus retroflexus, AMARE); test: as above; details: post-emerge, 14 days after application, rating scale 0-100
Outline: as §1

[4] = test system: velvetleaf (Abutilon theophrasti, ABUTH); test: as above; details: post-emerge, 14 days after application, rating scale 0-100
Outline: as §1

[5] = test system: ivyleaf morningglory (Ipomoea hederacea, IPOHE); test: as above; details: post-emerge, 14 days after application, rating scale 0-100
Outline: as §1

[6] = test system: johnsongrass (Sorghum halepense, SORHA); test: as above; details: post-emerge, 14 days after application, rating scale 0-100
Outline: as §1

[7] = test system: barnyardgrass (Echinochloa crus-galli, ECHCG); test: as above; details: post-emerge, 14 days after application, rating scale 0-100
Outline: as §1

[8] = test system: green foxtail (Setaria viridis, SETVI); test: as above; details: post-emerge, 14 days after application, rating scale 0-100
Outline: as §1

[9] = test system: large crabgrass (Digitaria sanguinalis, DIGSA); test: as above; details: post-emerge, 14 days after application, rating scale 0-100
Outline: as §1

[10] = test system: field corn (Zea mays L., var. Dekalb 535, CORN); test: Pre-emerge test, crop safety; details: rated 14 days after application, 0 = no damage, 100 = complete death
Outline: (§2)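 Fourteen days after spraying, crop and weed injury was graded visually from 0, no effect, to 100, every plant dead. Test substances were dissolved in acetone and applied at 15–1000 g ai/ha with a flat-fan nozzle. Application was either pre-emergence, one day after sowing, or post-emergence at the 2–3 leaf stage.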

[11] = test system: upland rice (Oryza sp., var. Tebonnet, RICE); test: Pre-emerge test, crop safety; details: rated 14 days after application, 0 = no damage, 100 = complete death
Outline: as §2

[12] = test system: field corn (Zea mays L., var. Dekalb 535, CORN); test: Post-emerge test, crop safety; details: post-emerge, 14 days after application, rating scale 0-100
Outline: (§3)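 Applied at 15–1000 g ai/ha from acetone in 187 l/ha spray volume. Post-emergence applications included 0.25% v/v non-ionic surfactant and reached plants sown 8–21 days before. Pre-emergence applications were incorporated by surface watering. Efficacy or crop damage was rated on a 0–100 scale after 14 days.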

[13] = test system: upland rice (Oryza sp., var. Tebonnet, RICE); test: Post-emerge test, crop safety; details: post-emerge, 14 days after application, rating scale 0-100
Outline: as §3

[14] = test system: sicklepod (Cassia obtusifolia, CASOB); test: Pre-emerge test, greenhouse herbicide activity screening; details: rated 14 days after application, 0 = no damage, 100 = complete death
Outline: as §3

[15] = test system: lambsquarters (Chenopodium album, CHEAL); test: as above; details: rated 14 days after application, 0 = no damage, 100 = complete death
Outline: as §3

[16] = test system: velvetleaf (Abutilon theophrasti, ABUTH); test: as above; details: rated 14 days after application, 0 = no damage, 100 = complete death
Outline: as §3

[17] = test system: ivyleaf morningglory (Ipomoea hederacea, IPOHE); test: as above; details: rated 14 days after application, 0 = no damage, 100 = complete death
Outline: as §3

[18] = test system: johnsongrass (Sorghum halepense, SORHA); test: as above; details: rated 14 days after application, 0 = no damage, 100 = complete death
Outline: as §3

[19] = test system: barnyardgrass (Echinochloa crus-galli, ECHCG); test: as above; details: rated 14 days after application, 0 = no damage, 100 = complete death
Outline: as §3

[20] = test system: green foxtail (Setaria viridis, SETVI); test: as above; details: rated 14 days after application, 0 = no damage, 100 = complete death
Outline: as §3

[21] = test system: large crabgrass (Digitaria sanguinalis, DIGSA); test: as above; details: rated 14 days after application, 0 = no damage, 100 = complete death
Outline: as §3

[22] = test system: redroot pigweed (Amaranthus retroflexus, AMARE); test: as above; details: rated 14 days after application, 0 = no damage, 100 = complete death
Outline: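 Sandy loam pots; pre-emerge: sown 1 d pre-spray, surface-watered after, then bottom-watered. Post-emerge: sown 8–21 d before, 2–3 leaf stage, + 0.25% v/v NIS, bottom-watered. Acetone, 187 l/ha track spray, 15–1000 g ai/ha. 0–100 injury score, day 14.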

COc1c(Cl)cc(F)c(-n2c(=O)cc(C(F)(F)F)n(C)c2=O)c1N(C(=O)C=Cc1ccccc1Cl)C(=O)C=Cc1ccccc1Cl [2-83]
phytotoxicity rating CASOB ([1]; 63 g ai/ha): 0
phytotoxicity rating CASOB ([1]; 250 g ai/ha): 0
phytotoxicity rating CHEAL ([2]; 63 g ai/ha): 20
phytotoxicity rating CHEAL ([2]; 250 g ai/ha): 50
phytotoxicity rating AMARE ([3]; 63 g ai/ha): 40
phytotoxicity rating AMARE ([3]; 250 g ai/ha): 90
phytotoxicity rating ABUTH ([4]; 63 g ai/ha): 50
phytotoxicity rating ABUTH ([4]; 250 g ai/ha): 70
phytotoxicity rating IPOHE ([5]; 63 g ai/ha): 10
phytotoxicity rating IPOHE ([5]; 250 g ai/ha): 20
phytotoxicity rating SORHA ([6]; 63 g ai/ha): 0
phytotoxicity rating SORHA ([6]; 250 g ai/ha): 0
phytotoxicity rating ECHCG ([7]; 63 g ai/ha): 0
phytotoxicity rating ECHCG ([7]; 250 g ai/ha): 0
phytotoxicity rating SETVI ([8]; 63 g ai/ha): 0
phytotoxicity rating SETVI ([8]; 250 g ai/ha): 0
phytotoxicity rating DIGSA ([9]; 63 g ai/ha): 0
phytotoxicity rating DIGSA ([9]; 250 g ai/ha): 0
Pre-emerge phytotoxicity rating (0-100), crop damage, CORN ([10]; 63 g ai/ha): 0
Pre-emerge phytotoxicity rating (0-100), crop damage, CORN ([10]; 250 g ai/ha): 0
Pre-emerge phytotoxicity rating (0-100), crop damage, RICE ([11]; 63 g ai/ha): 0
Pre-emerge phytotoxicity rating (0-100), crop damage, RICE ([11]; 250 g ai/ha): 0
phytotoxicity rating CORN ([12]; 63 g ai/ha): 0
phytotoxicity rating CORN ([12]; 250 g ai/ha): 0
phytotoxicity rating RICE ([13]; 63 g ai/ha): 100
phytotoxicity rating RICE ([13]; 250 g ai/ha): 0
Pre-emerge Herbicidal Activity, phytotoxicity rating (0-100), CASOB ([14]; 63 g ai/ha): 0
Pre-emerge Herbicidal Activity, phytotoxicity rating (0-100), CASOB ([14]; 250 g ai/ha): 0
Pre-emerge Herbicidal Activity, phytotoxicity rating (0-100), CHEAL ([15]; 63 g ai/ha): 30
Pre-emerge Herbicidal Activity, phytotoxicity rating (0-100), CHEAL ([15]; 250 g ai/ha): 90
Pre-emerge Herbicidal Activity, phytotoxicity rating (0-100), ABUTH ([16]; 63 g ai/ha): 10
Pre-emerge Herbicidal Activity, phytotoxicity rating (0-100), ABUTH ([16]; 250 g ai/ha): 100
Pre-emerge Herbicidal Activity, phytotoxicity rating (0-100), IPOHE ([17]; 63 g ai/ha): 0
Pre-emerge Herbicidal Activity, phytotoxicity rating (0-100), IPOHE ([17]; 250 g ai/ha): 0
Pre-emerge Herbicidal Activity, phytotoxicity rating (0-100), SORHA ([18]; 63 g ai/ha): 0
Pre-emerge Herbicidal Activity, phytotoxicity rating (0-100), SORHA ([18]; 250 g ai/ha): 20
Pre-emerge Herbicidal Activity, phytotoxicity rating (0-100), ECHCG ([19]; 63 g ai/ha): 0
Pre-emerge Herbicidal Activity, phytotoxicity rating (0-100), ECHCG ([19]; 250 g ai/ha): 0
Pre-emerge Herbicidal Activity, phytotoxicity rating (0-100), SETVI ([20]; 63 g ai/ha): 0
Pre-emerge Herbicidal Activity, phytotoxicity rating (0-100), SETVI ([20]; 250 g ai/ha): 40
Pre-emerge Herbicidal Activity, phytotoxicity rating (0-100), DIGSA ([21]; 63 g ai/ha): 0
Pre-emerge Herbicidal Activity, phytotoxicity rating (0-100), DIGSA ([21]; 250 g ai/ha): 30
Pre-emerge Herbicidal Activity, phytotoxicity rating (0-100), AMARE ([22]; 63 g ai/ha): 60
Pre-emerge Herbicidal Activity, phytotoxicity rating (0-100), AMARE ([22]; 250 g ai/ha): 100

Source: patent US6355799B1, “Substituted benzene compounds, process for their preparation, and herbicidal and defoliant compositions containing them” (ISK Americas Incorporated, priority 1997, dated 2002)
